Data taken from patent US8742106B2 (Novartis AG, priority 2009, dated 2014).

Legend:
[1] = molecular target: T1, human orexin 1 receptors (Homo sapiens (Human), UniProt O43613); test: Radioligand Binding Assay II ([3H]-SB649868 competition, cell membranes); conditions: read-out: binding II hOx1R Kd
Procedure: (§1) Radioligand Binding Assay II
(§2) For crude cell membrane preparations, cells (CHO, Chinese hamster ovary or HEK, human embryonic kidney) expressing human orexin 1 or human orexin 2 receptors, were washed with HEPES (10 mM, pH 7.5), scraped off the culture plates with the same buffer, and centrifuged at 4° C. for 5 min at 2500×g. The cell pellet was either stored at −80° C. or used directly. Before the experiments, cell membranes were re-suspended in binding assay buffer (10 mM HEPES, 0.5% (w/v) bovine serum albumin, pH 7.5) by homogenisation with a Polytron homogeniser at 50 Hz for 20 s. Cell membranes were also used as made available by commercial providers.
(§3) Bound radioactivity was measured, and data were analysed with the program XLFIT or Graphpad Prism. Protein concentration was determined according to the Bradford/BioRad Protein Assay Kit.
(§4) In competition experiments, cell homogenates (150 μl) were incubated in assay buffer (10 mM HEPES, pH 7.5, 0.5% (w/v) bovine serum albumin, 5 mM MgCl2, 1 mM CaCl2, and tween 0.05%) for 1 h at room temperature with about 1 nM of the radioligand [^3H]-SB649868, 66 Ci/mmole, 50 μl), and with various concentrations of compounds of the invention (50 μl) in triplicates; non-specific binding was determined in the presence of almorexant (10 μM). Reactions were terminated by vacuum filtration, 3 washes of ice cold wash buffer (Tris-HCl pH 7.4/10 mM, with NaCl 154 mM). Competition data is expressed in Table 2 as Kd [μM].

[2] = molecular target: T1, human orexin 1 receptors; test: Calcium Accumulation in Cells (FLIPR), antagonism of orexin A; type: cell-based; conditions: for Ki: antagonism of orexin A, Cheng-Prusoff corrected, read-out: FLIPR hOx1R Ki; for inhibition at 10 µM: measured at a concentration of 10 μM of compound, read-out: FLIPR hOx1R % inhibition value
[3] = molecular target: T2, human orexin 2 receptors (Homo sapiens (Human), UniProt O43614); test: Radioligand Binding Assay II ([3H]-SB649868 competition, cell membranes); conditions: read-out: binding II hOx2R Kd
T2 sequence (O43614 whole entry): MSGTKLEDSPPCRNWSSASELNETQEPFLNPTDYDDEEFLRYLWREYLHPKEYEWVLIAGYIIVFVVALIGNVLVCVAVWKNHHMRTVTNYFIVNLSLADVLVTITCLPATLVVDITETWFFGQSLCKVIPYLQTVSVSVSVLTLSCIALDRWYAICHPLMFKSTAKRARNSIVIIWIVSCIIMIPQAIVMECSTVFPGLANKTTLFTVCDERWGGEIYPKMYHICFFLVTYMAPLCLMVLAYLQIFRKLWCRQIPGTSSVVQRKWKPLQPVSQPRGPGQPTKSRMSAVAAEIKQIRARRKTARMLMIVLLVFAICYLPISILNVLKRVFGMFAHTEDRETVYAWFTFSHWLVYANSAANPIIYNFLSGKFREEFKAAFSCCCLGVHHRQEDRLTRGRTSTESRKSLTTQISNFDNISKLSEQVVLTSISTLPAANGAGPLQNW
Procedure: as §1, §2, §3
as §4, with “mM).” for “mM). Competition data is expressed in Table 2 as Kd [μM].”

[4] = molecular target: T2, human orexin 2 receptors; test: Calcium Accumulation in Cells (FLIPR), antagonism of orexin A; type: cell-based; conditions: for Ki: antagonism of orexin A, Cheng-Prusoff corrected, read-out: FLIPR hOx2R Ki
How it was run: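 Antagonism was measured as block of orexin A-evoked Ca²⁺ fluorescence (FLIPR), with orexin A added one hour after test compound (usually 10^−9–10^−5 M), which was first read alone for agonist activity. Human orexin 2 receptor cells were dye-loaded with 2 μM Fluo4-AM and 0.1 mM probenecid for 1 h.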

T1 sequence (O43613 whole entry): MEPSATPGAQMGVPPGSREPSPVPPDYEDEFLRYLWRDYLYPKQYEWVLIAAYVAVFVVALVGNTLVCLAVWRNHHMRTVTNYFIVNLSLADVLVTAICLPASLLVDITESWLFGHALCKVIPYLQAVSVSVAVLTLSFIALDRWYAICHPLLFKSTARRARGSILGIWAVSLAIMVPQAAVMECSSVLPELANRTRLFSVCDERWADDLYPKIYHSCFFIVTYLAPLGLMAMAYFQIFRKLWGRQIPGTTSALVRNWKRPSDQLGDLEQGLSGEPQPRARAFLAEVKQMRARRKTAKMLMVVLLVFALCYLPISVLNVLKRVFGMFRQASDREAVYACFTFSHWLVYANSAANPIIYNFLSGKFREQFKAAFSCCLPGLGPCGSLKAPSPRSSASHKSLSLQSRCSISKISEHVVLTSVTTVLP

Row | SMILES | Kd [1] [nM] | Ki [2] [nM] | Kd [3] [nM] | Ki [4] [nM] | inhibition at 10 µM [2] [%] | inhibition at 10 µM ([4]; measured at a concentration of 10 μM of compound, read-out: FLIPR hOx2R % inhibition value) [%]
1 | COc1ccc([C@H](C)NC(=O)COc2cc(C)c3c(-c4cc(C)oc4C)nn(C)c3n2)cc1 [Example 6.31, (S)-2-(3-(2,5-dimethylfuran-3-yl)-1,4-dimethyl-1H-pyrazolo[3,4-b]pyridin-6-yloxy)-N-(1-(4-methoxyphenyl)ethyl)acetamide] | 40 | 18 | 221 | 47 | – | –
2 | COc1nc(-c2nn(C)c3nc(OCC(=O)N[C@@H](C)c4ccc(C)cc4)cc(C)c23)cs1 [Example 5.5, (S)-2-(3-(2-methoxythiazol-4-yl)-1,4-dimethyl-1H-pyrazolo[3,4-b]pyridin-6-yloxy)-N-(1-p-tolylethyl)acetamide] | 15 | 21 | 37 | 28 | – | –
3 | Cc1ccc([C@H](C)NC(=O)COc2cc(C(F)(F)F)c3c(C4CC4)nn(C)c3n2)cc1 [Example 6.13, (S)-2-(3-cyclopropyl-1-methyl-4-(trifluoromethyl)-1H-pyrazolo[3,4-b]pyridin-6-yloxy)-N-(1-p-tolylethyl)acetamide] | 44 | 52 | 14 | 6 | – | –
4 | COc1ccc([C@H](C)NC(=O)COc2cc(C)c3c(-c4cc(OC)cc(OC)c4)nn(C)c3n2)cc1 [Example 6.36, (S)-2-(3-(3,5-dimethoxyphenyl)-1,4-dimethyl-1H-pyrazolo[3,4-b]pyridin-6-yloxy)-N-(1-(4-methoxyphenyl)ethyl)acetamide] | 19 | – | 498 | 323 | – | –
5 | Cc1nn(C)c(C)c1C(C)NC(=O)COc1cc(C(F)F)c2c(-c3ccccc3)nn(C)c2n1 (stereo not shown) [Example 6.20, 2-(4-(difluoromethyl)-1-methyl-3-phenyl-1H-pyrazolo[3,4-b]pyridin-6-yloxy)-N-(1-(1,3,5-trimethyl-1H-pyrazol-4-yl)ethyl)acetamide] | 22 | 63 | 90 | 59 | – | –
6 | Cc1ccc([C@H](C)NC(=O)COc2cc(C)c3c(-c4cnn(C)c4)nn(C)c3n2)cc1 [Example 4.6, (S)-2-(1,4-dimethyl-3-(1-methyl-1H-pyrazol-4-yl)-1H-pyrazolo[3,4-b]pyridin-6-yloxy)-N-(1-p-tolylethyl)acetamide] | 76 | 247 | 82 | 89 | – | –
7 | COc1ccc2c(c1)CCC2NC(=O)COc1cc(C)c2c(C3CC3)nn(C)c2n1 (stereo not shown) [Example 6.3, 2-(3-cyclopropyl-1,4-dimethyl-1H-pyrazolo[3,4-b]pyridin-6-yloxy)-N-(5-methoxy-2,3-dihydro-1H-inden-1-yl)acetamide] | 101 | 192 | – | – | – | –
8 | Cc1ccc2c(n1)CC[C@@H]2NC(=O)COc1cc(C(F)F)c2c(-c3cc(C)oc3C)nn(C)c2n1 [Example 6.38, (S)-2-(4-(difluoromethyl)-3-(2,5-dimethylfuran-3-yl)-1-methyl-1H-pyrazolo[3,4-b]pyridin-6-yloxy)-N-(2-methyl-6,7-dihydro-5H-cyclopenta[b]pyridin-5-yl)acetamide] | 123 | 91 | 271 | 64 | – | –
9 | COc1ccc([C@H](C)NC(=O)COc2cc(C(F)F)c3c(C4CC4)nn(C)c3n2)cc1 [Example 6.7, (S)-2-(3-cyclopropyl-4-(difluoromethyl)-1-methyl-1H-pyrazolo[3,4-b]pyridin-6-yloxy)-N-(1-(4-methoxyphenyl)ethyl)acetamide] | 36 | 68 | 27 | 21 | – | –
10 | Cc1ccc2c(c1)CCC2NC(=O)COc1cc(C)c2c(C3CC3)nn(C)c2n1 (stereo not shown) [Example 6.41, 2-(3-cyclopropyl-1,4-dimethyl-1H-pyrazolo[3,4-b]pyridin-6-yloxy)-N-(5-methyl-2,3-dihydro-1H-inden-1-yl)acetamide] | 908 | 495 | 225 | 29 | – | –
11 | Cc1ccc([C@H](C)NC(=O)COc2cc(C(F)F)c3c(C4CC4)nn(C)c3n2)cc1 [Example 6.8, (S)-2-(3-cyclopropyl-4-(difluoromethyl)-1-methyl-1H-pyrazolo[3,4-b]pyridin-6-yloxy)-N-(1-p-tolylethyl)acetamide] | 22 | 14 | 19 | 5 | – | –
12 | COc1ccnc(-c2nn(C)c3nc(OCC(=O)N[C@@H](C)c4ccc(C)cc4)cc(C)c23)c1 [Example 6.37, (S)-2-(3-(4-methoxypyridin-2-yl)-1,4-dimethyl-1H-pyrazolo[3,4-b]pyridin-6-yloxy)-N-(1-p-tolylethyl)acetamide] | 6 | 7 | 17 | 10 | – | –
13 | COc1ccc([C@H](C)NC(=O)COc2cc(C(F)F)c3c(-c4ccccc4)nn(C)c3n2)cc1 [Example 6.17, (S)-2-(4-(difluoromethyl)-1-methyl-3-phenyl-1H-pyrazolo[3,4-b]pyridin-6-yloxy)-N-(1-(4-methoxyphenyl)ethyl)acetamide] | 11 | 19 | 7 | 2 | – | –
14 | Cc1ccc([C@H](C)NC(=O)COc2cc(C)c3c(-c4ncccn4)nn(C)c3n2)cc1 [Example 4.7, (S)-2-(1,4-dimethyl-3-(pyrimidin-2-yl)-1H-pyrazolo[3,4-b]pyridin-6-yloxy)-N-(1-p-tolylethyl)acetamide] | 11 | 4 | 13 | 9 | – | –
15 | COc1ccc([C@H](C)NC(=O)COc2cc(C(F)(F)F)c3c(-c4cc(C)oc4C)nn(C)c3n2)cc1 [Example 6.80, (S)-2-(3-(2,5-dimethylfuran-3-yl)-1-methyl-4-(trifluoromethyl)-1H-pyrazolo[3,4-b]pyridin-6-yloxy)-N-(1-(4-methoxyphenyl)ethyl)acetamide] | 12 | 6 | 32 | 7 | – | –
16 | COc1ccc(C(C)NC(=O)COc2cc(C(F)(F)F)c3c(C4CC4)nn(C)c3n2)cn1 (stereo not shown) [Example 6.14, 2-(3-cyclopropyl-1-methyl-4-(trifluoromethyl)-1H-pyrazolo[3,4-b]pyridin-6-yloxy)-N-(1-(6-methoxypyridin-3-yl)ethyl)acetamide] | 428 | 523 | 141 | 72 | – | –
17 | Cc1ccc2c(n1)CC[C@@H]2NC(=O)COc1cc(C(F)F)c2c(C3CC3)nn(C)c2n1 [Example 6.2, (S)-2-(3-cyclopropyl-4-(difluoromethyl)-1-methyl-1H-pyrazolo[3,4-b]pyridin-6-yloxy)-N-(2-methyl-6,7-dihydro-5H-cyclopenta[b]pyridin-5-yl)acetamide] | 61 | 284 | 75 | 50 | – | –
18 | COc1ccc2c(c1)CC[C@@H]2NC(=O)COc1cc(C)c2c(C3CC3)nn(C)c2n1 [Example 6.5, (S)-2-(3-cyclopropyl-1,4-dimethyl-1H-pyrazolo[3,4-b]pyridin-6-yloxy)-N-(5-methoxy-2,3-dihydro-1H-inden-1-yl)acetamide] | 67 | 152 | – | – | – | –
19 | Cc1cccc(CNC(=O)COc2cc(C(F)(F)F)c3c(-c4ccccc4)nn(C)c3n2)c1 [Example 1.66, 2-(1-methyl-3-phenyl-4-(trifluoromethyl)-1H-pyrazolo[3,4-b]pyridin-6-yloxy)-N-(3-methylbenzyl)acetamide] | – | – | – | – | 23 | 41
20 | C[C@H](NC(=O)COc1cc(C2CC2)c2c(-c3ccccc3)nn(C)c2n1)c1ccccc1 [Example 1.47, (S)-2-(4-cyclopropyl-1-methyl-3-phenyl-1H-pyrazolo[3,4-b]pyridin-6-yloxy)-N-(1-phenylethyl)acetamide] | – | 441 | – | 561 | – | –
21 | Cc1cnc2c(c1)CC[C@@H]2NC(=O)COc1cc(C)c2c(C3CC3)nn(C)c2n1 [Example 6.65, (S)-2-(3-cyclopropyl-1,4-dimethyl-1H-pyrazolo[3,4-b]pyridin-6-yloxy)-N-(3-methyl-6,7-dihydro-5H-cyclopenta[b]pyridin-7-yl)acetamide] | – | – | – | 825 | < 10 | –
